Laboratory results reported in patent US9181199B2, “Uracil derivatives and use thereof” (RESprotect GmbH, priority 2008, dated 2015).

CC(c1ccccc1)n1cc(C=C(Br)Br)c(=O)[nH]c1=O (stereo not shown) [compound M, 1-(1-Phenylethyl)-5-(2,2-dibromovinyl)uracil] gave a melting point of 179 to 183 °C. Compound C#Cc1cn(Cc2ccccc2)c(=O)[nH]c1=O [compound R, 1-Benzyl-5-ethynyluracil] has a melting point of 190 to 193 °C. With CC(c1ccccc1)n1cc(C#CBr)c(=O)[nH]c1=O (stereo not shown) [compound N, 1-(1-Phenylethyl)-5-bromoethynyluracil] the melting point was 163 to 167 °C. In the case of C[Si](C)(C)C#Cc1cn(Cc2ccccc2)c(=O)[nH]c1=O, the melting point is reported as 213 to 215 °C. In the case of C=CCn1cc(C=CBr)c(=O)[nH]c1=O [compound C, 1-Allyl-5-(2-bromovinyl)uracil], the melting point is reported as 137 °C. With N#CC=Cc1cn(C(c2ccccc2)c2ccccc2)c(=O)[nH]c1=O [compound G, 1-Benzhydryl-5-(2-cyanovinyl)uracil] the melting point was 261 °C. With O=c1[nH]c(=O)n(Cc2ccccc2)cc1C#CBr [compound D, 1-Benzyl-5-bromoethynyluracil] the melting point was 162 to 165 °C. O=c1[nH]c(=O)n(Cc2ccccc2)cc1C=CBr [compound B, 1-Benzyl-5-(2-bromovinyl)uracil] showed a melting point of 183 °C. For O=c1[nH]c(=O)n(C(c2ccccc2)c2ccccc2)cc1-c1c[nH]nn1 [compound F, 1-Benzhydryl-5-(1H-1,2,3-triazol-4-yl)uracil], the melting point was 165 °C. O=c1[nH]c(=O)n(Cc2ccccc2)cc1C=C(Br)Br [compound L, 1-Benzyl-5-(2,2-dibromovinyl)uracil] gave a melting point of 205 to 206 °C. With C=CCn1cc(C=C(Br)Br)c(=O)[nH]c1=O [compound H, 1-Allyl-5-(2,2-dibromovinyl)uracil] the melting point was 154 to 156 °C. For C=CCn1cc(C#CBr)c(=O)[nH]c1=O [compound I, 1-Allyl-5-bromoethynyluracil], the melting point was 164 to 168 °C. Work on O=c1c(C=CBr)cn(C(c2ccccc2)c2ccccc2)c(=O)n1Cc1ccccc1 [compound A, 1-Benzhydryl-3-benzyl-5-(2-bromovinyl)uracil] yielded a melting point of 131 °C.
